The subject of test [1] is HT-29 (human colon cancer cell). Briefly: MTS cell proliferation test, HT-29 (Embodiment 8). It counts as cell-based. Here is the method:
(§1) Respectively, the S medicine test solution was prepared by dissolving the ((S,S,S) cis,cis-spiro[4,4]nonane-1,6-diamine)oxalatoplatinum(II) complex (compound 2; hereinafter, it is described as S medicine) into the dimethylsulfoxide (DMSO) with the concentration of 10 mg/ml and the R medicine test solution was prepared by dissolving the ((R,R,R)cis,cis-spiro[4,4]nonane-1,6-diamine) oxalatoplatinum(II) complex (compound 3; hereinafter, it is described as R medicine) into the dimethylsulfoxide (DMSO) with the concentration of 10 mg/ml.
(§2) The test was performed by using A549 (human lung cancer cell), LU65A (human lung cancer cell), RERF-LC-MA (human lung cancer cell), LU99 (human lung cancer cell), H460 (human lung cancer cell), HCT116 (human colon cancer cell), HT-29 (human colon cancer cell), MKN-45 (human gastric cancer cell), MKN-1 (human gastric cancer cell), U937 (human lymphoma cell), KP-1N (human pancreas cancer cell) and B2452 (human mesotheliama cell) as the cancer cell.
(§3) These cells were suspended in the each culture medium that the serum of 10% was added, and were dispensed in 96-well plate. And then, these were cultured in 5% CO2 at 37 degrees centigrade during a night. Next day, the S medicine test solution and the R medicine test solution were prepared in the culture medium to the various concentrations (5, 10, 20 μg/ml), and were dispensed into the plates that the cells were set preliminarily. And further, these were cultured in 5% CO2 at 37 degrees centigrade for three days.
(§4) The cell proliferation after the medicine addition was measured on the 3rd day from the 1st day after the medicine addition by the MTS method (kit for cell proliferation test manufactured by Promega Company).
(§5) The inhibition rate (%) of the cell proliferation was obtained from the measured MTS value by the following formula. Inhibition rate(%)=(1-MTS value of medicine addition group/MTS value of medicine non-addition group)×100
(§6) Because the value which was obtained by the above-mentioned formula represents the inhibition rate of the cell proliferation, the higher the numerical value is, the higher the medicine effect is. It is desired that the one whose value is 50% or more has the medicine effect.
On the technique in general: Formazan colour is commonly taken as a measure of viable cells.

Test [2] deals with A549 (human lung cancer cell). Kind of test: MTS cell proliferation test, A549 (Embodiment 8). It counts as cell-based. Here is the method: as §1, §2, §3, §4, §5, §6
Test [3] concerns H460 (human lung cancer cell). Kind of test: MTS cell proliferation test, H460 (Embodiment 8). The format is cell-based. The method, then: as §1, §2, §3, §4, §5, §6
Test [4] has as its system U937 (human lymphoma cell). Kind of test: MTS cell proliferation test, U937 (Embodiment 8). It counts as cell-based. The method, then: as §1, §2, §3, §4, §5, §6
For test [5], the system named is LU65A (human lung cancer cell). Briefly: MTS cell proliferation test, LU65A (Embodiment 8). The format is cell-based. Here is the method: as §1, §2, §3, §4, §5, §6
The test system of test [6] is MKN-45 (human gastric cancer cell). Briefly: MTS cell proliferation test, MKN-45 (Embodiment 8). The format is cell-based. The method, then:
as §1, §2, §3, §4, §5, §6

The subject of test [7] is HCT116 (human colon cancer cell). Briefly: MTS cell proliferation test, HCT116 (Embodiment 8). The format is cell-based. The method, then:
as §1, §2, §3, §4, §5, §6

The subject of test [8] is KP-1N (human pancreas cancer cell). Briefly: MTS cell proliferation test, KP-1N (Embodiment 8). The format is cell-based. Here is the method:
as §1, §2, §3, §4, §5, §6

In test [9] the test system is RERF-LC-MA (human lung cancer cell). Kind of test: MTS cell proliferation test, RERF-LC-MA (Embodiment 8). The format is cell-based. The method, then:
as §1, §2, §3, §4, §5, §6

Test [10] relates to U937 (human lymphoma cell). Briefly: MTS cell proliferation test, U937 (Embodiment 7). The format is cell-based. The conditions noted are these: for medicine effect in the cancer cell (U937): summary of Table 1 in words. Here is the method: The test solution was prepared by dissolving the (compound 1) into the dimethylsulfoxide ([…]) with the concentration of 8 mg/ml.
The test was performed by using the U937 (human lymphoma cell) as the cancer cell and using the HEK293 (human fetus kidney cell) as the normal cell.
These cells were suspended in the each culture medium that the serum of 10% was added, and were dispensed in 96-well plate. And then, these were cultured in 5% CO2 at 37 degrees centigrade during a night. Next day, the test solution was prepared in the culture medium to the various concentrations (0, 4, 8, 16 μg/ml), and was dispensed into the plate that the cells were set preliminarily. And further, these were cultured in 5% CO2 at 37 degrees centigrade for three days.
The cell proliferation after the medicine addition was measured on the 3rd day from the 1st day after the medicine addition by the […] (Kit for cell proliferation test manufactured by Promega Company).
as §5
Because the value which was obtained by the above-mentioned formula represents the inhibition rate of the cell proliferation, the higher the numerionl value is, the higher the medicine effect is. It is deemed that the one whose value is 50% or more has the medicine effect.

In test [11] the test system is MKN-1 (human gastric cancer cell). Kind of test: MTS cell proliferation test, MKN-1 (Embodiment 8). The format is cell-based. The method, then: as §1, §2, §3, §4, §5, §6
The subject of test [12] is H2452 cell (human mesothelicana cell). Kind of test: MTS cell proliferation test, H2452 (Embodiment 8). The format is cell-based. Here is the method:
as §1, §2, §3, §4, §5, §6

The subject of test [13] is LU99 (human lung cancer cell). Kind of test: MTS cell proliferation test, LU99 (Embodiment 8). The format is cell-based. Here is the method: as §1, §2, §3, §4, §5, §6
A further test concerns tumor cells. Briefly: MTS cell proliferation test, all cancer cells of Embodiment 8. It counts as cell-based, human. To be noted: summary of Table 2 in words. The method, then:
as §1
The test was performed by using A549 (human lung cancer cell), LU65A (human lung cancer cell), RERF-LC-MA (human lung cancer cell), LU99 (human lung cancer cell), H460 (human lung cancer cell), HCT116 (human colon cancer cell), HT-29 (human colon cancer cell), MKN-45 (human gastric cancer cell), MKN-1 (human gastric cancer cell), U937 (human lymphoma cell), KP-1N (human pancreas cancer cell) and B2452 (human mesotheliama cell) as the cancer cell. […]
as §4
The inhibition rate (%) of the cell proliferation was obtained from the measured MTS value by the following formula. […]

“Also recorded” adds a separate entry of the source.

As to `O=C1[O][Pt]2([NH][C@@H]3CCCC[C@H]3[NH]2)[O]C1=O` [oxaliplatin, reference compound], the “Inhibition rate of cell proliferation after 3 days from medicine addition (%)” value is on record as “Δ (Δ: 26~50%)” in test [1] (HT-29, 10 μg/ml); “Δ (Δ: 26~50%)” in test [1] (HT-29, 20 μg/ml); “X (X: 0~25%)” in test [2] (A549, 10 μg/ml); “Δ (Δ: 26~50%)” in test [2] (A549, 20 μg/ml); “Δ (Δ: 26~50%)” in [3] (H460, 10 μg/ml); “Δ (Δ: 26~50%)” in test [3] (H460, 20 μg/ml). Further, the “Inhibition rate of cell proliferation after 3 days from medicine addition (%)” value in [4] (U937, 10 μg/ml) is “⊚ (⊚: 76~100%)”; in [4] (U937, 20 μg/ml), “⊚ (⊚: 76~100%)”; in test [5] (10 μg/ml) it was “Δ (Δ: 26~50%)”; in test [5] (20 μg/ml), “◯ (◯: 51~75%)”; in test [6] (MKN-45, 10 μg/ml) it was “⊚ (⊚: 76~100%)”; in [6] (MKN-45, 20 μg/ml) it was “⊚ (⊚: 76~100%)”. In addition, the “Inhibition rate of cell proliferation after 3 days from medicine addition (%)” value in [7] (HCT116, 10 μg/ml) is “◯ (◯: 51~75%)”; in test [7] (HCT116, 20 μg/ml), “◯ (◯: 51~75%)”; in test [8] (10 μg/ml), “Δ (Δ: 26~50%)”; in test [8] (20 μg/ml), “◯ (◯: 51~75%)”; in test [9] (10 μg/ml), “X (X: 0~25%)”; in test [9] (20 μg/ml), “X (X: 0~25%)”. Also, the “Inhibition rate of cell proliferation after 3 days from medicine addition (%)” value in test [11] (MKN-1, 10 μg/ml) is reported as “◯ (◯: 51~75%)”; in test [11] (MKN-1, 20 μg/ml), “⊚ (⊚: 76~100%)”; in test [12] (H2452, 10 μg/ml), “Δ (Δ: 26~50%)”; in test [12] (H2452, 20 μg/ml), “Δ (Δ: 26~50%)”; in [13] (LU99, 10 μg/ml) it was “◯ (◯: 51~75%)”; in test [13] (LU99, 20 μg/ml), “◯ (◯: 51~75%)”. Moreover, the “Inhibition rate of cell proliferation for 1st to 3rd day from medicine addition (%)” value in test [10] (U937, 4 μg/ml, 1st day) is −5%; in [10] (U937, 4 μg/ml, 2nd day) it was −26%; in [10] (U937, 4 μg/ml, 3rd day), 12%; in test [10] (U937, 8 μg/ml, 1st day), −1%; in test [10] (U937, 8 μg/ml, 2nd day), −5%; in [10] (U937, 8 μg/ml, 3rd day), 37%. For the same compound, the “Inhibition rate of cell proliferation for 1st to 3rd day from medicine addition (%)” value in test [10] (U937, 16 μg/ml, 1st day) worked out at 0%; in test [10] (U937, 16 μg/ml, 2nd day), 30%; in test [10] (U937, 16 μg/ml, 3rd day) it was 73%. In addition, the “medicine effect in the cancer cell (U937)” value in [10] is “medicine effect was also recognized”.
In the case of `O=C1[O][Pt]2([NH][C@H]3CCCC34CCC[C@@H]4[NH]2)[O]C1=O` (stereo partly drawn) [compound 1, (cis,cis-spiro[4,4]nonane-1,6-diamine) oxalatoplatinum(II) complex], the “medicine effect in the cancer cell (U937)” value in [10] is recorded as “remarkable medicine effect”.
For `NC1CCCC12CCCC2N.O=C1[O][Pt][O]C1=O` [R medicine, ((R,R,R)cis,cis-spiro[4,4]nonane-1,6-diamine) oxalatoplatinum(II) complex], the “Inhibition rate of cell proliferation after 3 days from medicine addition (%)” value was “◯ (◯: 51~75%)” in [1] (HT-29, 5 μg/ml); “◯ (◯: 51~75%)” in test [1] (HT-29, 10 μg/ml); “⊚ (⊚: 76~100%)” in [1] (HT-29, 20 μg/ml); “Δ (Δ: 26~50%)” in test [2] (A549, 5 μg/ml); “◯ (◯: 51~75%)” in [2] (A549, 10 μg/ml); “◯ (◯: 51~75%)” in [2] (A549, 20 μg/ml). In addition, the “Inhibition rate of cell proliferation after 3 days from medicine addition (%)” value in test [3] (H460, 5 μg/ml) is “◯ (◯: 51~75%)”; in test [3] (H460, 10 μg/ml), “⊚ (⊚: 76~100%)”; in test [3] (H460, 20 μg/ml) it was “⊚ (⊚: 76~100%)”; in test [4] (U937, 5 μg/ml), “⊚ (⊚: 76~100%)”; in test [4] (U937, 10 μg/ml), “⊚ (⊚: 76~100%)”; in test [4] (U937, 20 μg/ml) it was “⊚ (⊚: 76~100%)”. Further, the “Inhibition rate of cell proliferation after 3 days from medicine addition (%)” value was “⊚ (⊚: 76~100%)” in [5] (5 μg/ml); “⊚ (⊚: 76~100%)” in test [5] (10 μg/ml); “⊚ (⊚: 76~100%)” in test [5] (20 μg/ml); “⊚ (⊚: 76~100%)” in test [6] (MKN-45, 5 μg/ml); “⊚ (⊚: 76~100%)” in [6] (MKN-45, 10 μg/ml); “⊚ (⊚: 76~100%)” in test [6] (MKN-45, 20 μg/ml). The “Inhibition rate of cell proliferation after 3 days from medicine addition (%)” value in test [7] (HCT116, 5 μg/ml) is recorded as “◯ (◯: 51~75%)”; in test [7] (HCT116, 10 μg/ml), “⊚ (⊚: 76~100%)”; in test [7] (HCT116, 20 μg/ml), “⊚ (⊚: 76~100%)”; in test [8] (5 μg/ml) it was “◯ (◯: 51~75%)”; in test [8] (10 μg/ml) it was “⊚ (⊚: 76~100%)”; in test [8] (20 μg/ml) it was “⊚ (⊚: 76~100%)”. The “Inhibition rate of cell proliferation after 3 days from medicine addition (%)” value in test [9] (5 μg/ml) is on record as “Δ (Δ: 26~50%)”; in [9] (10 μg/ml), “◯ (◯: 51~75%)”; in test [9] (20 μg/ml), “◯ (◯: 51~75%)”; in [11] (MKN-1, 5 μg/ml), “⊚ (⊚: 76~100%)”; in test [11] (MKN-1, 10 μg/ml) it was “⊚ (⊚: 76~100%)”; in test [11] (MKN-1, 20 μg/ml) it was “⊚ (⊚: 76~100%)”. Besides, the “Inhibition rate of cell proliferation after 3 days from medicine addition (%)” value was “Δ (Δ: 26~50%)” in test [12] (H2452, 5 μg/ml); “◯ (◯: 51~75%)” in [12] (H2452, 10 μg/ml); “◯ (◯: 51~75%)” in test [12] (H2452, 20 μg/ml); “⊚ (⊚: 76~100%)” in [13] (LU99, 5 μg/ml); “⊚ (⊚: 76~100%)” in [13] (LU99, 10 μg/ml); “⊚ (⊚: 76~100%)” in [13] (LU99, 20 μg/ml). For the same compound, the “medicine effect for the many tumor cells” value in the test on tumor cells is given as “high medicine effect compared with the oxaliplatin; also recorded: higher in the effect”.

These data come from US8501977B2, “Platinum complex and pharmaceutical composition containing the same” (Unitech Co., Ltd., priority 2008, dated 2013).
